Laboratory results taken from US6562809B1, “3-bicycloindole compounds” (NPS Allelix Corp., priority 1998, dated 2003).

Key:
[1] = biological target: T1, 5-HT1D receptor (Homo sapiens, UniProt P28221); assay: Binding affinity, 3H-serotonin displacement from membranes of cells expressing 5-HT1D; settings: 100 nM of test compound; 3H-serotonin 1 nM; 60 minute incubation at 22° C.; read-out: percent inhibition of binding of the radioligand at the 5-HT1D receptor
T1 construct: expressed in transfected cells
Description: (§1) Selected compounds of the previous examples, as well as reference compounds were evaluated for binding affinity using cell types receptive specifically to 5-HT1D and 5-HT1B ligands. The assay protocol generally entailed the incubation of membranes prepared from cells expressing the 5-HT1D or 5-HT1B subtype of 5-HT receptors with ^3H-serotonin (1 nM for 5-HT1D and 2.5 nM for 5-HT1B). Specific concentrations of the test compound were incubated with the radioligand and the membrane homogenates prepared from the recombinant cells. After a 60 minute incubation at 22° C., the incubation was terminated by vacuum filtration. The filters were washed with buffer and counted for radioactivity using liquid scintillation spectroscopy. The affinity of the test compound for the 5-HT1D receptor is expressed as the amount (in percent) of binding of the radioligand that is inhibited in the presence of 100 nM of test compound. A greater percent inhibition indicates greater affinity for the 5-HT1D receptor.

[2] = biological target: T2, 5-HT1B receptor (Homo sapiens, UniProt P28222); assay: Binding affinity, 3H-serotonin displacement from membranes of cells expressing 5-HT1B; settings: 3H-serotonin 2.5 nM; 60 minute incubation at 22° C.; 100 nM test compound given only for 5-HT1D; read-out: percent inhibition at the 5-HT1B receptor
T2 construct: expressed in transfected cells
Description: as §1

[3] = biological target: T1, 5-HT1D receptor; assay: Functional assay, inhibition of forskolin-stimulated adenyl cyclase (cAMP) in CHO Pro 5 cells; format: cell-based; settings: CHO cells stably expressing the 5-HT1D receptor; concentrations of 100 nM and 10 μM
Description: The 5HT1D and 5HT1B receptor subtypes respond to serotonin and other agonists by reducing adenyl cyclase mediated production of cyclic AMP. Particular test compounds were assayed for their ability to inhibit adenyl cyclase activity using the procedure described below. Forskolin was used to elevate the basal adenyl cyclase activity.
Compounds acting as antagonists at the 5HT1D and 5HT1B receptor subtypes will antagonize the agonist effect of serotonin and thus, will block the serotonin-induced inhibition of forskolin-stimulated adenyl cyclase activity. […]
The culture media of each well was removed, and the wells were washed once with serum free media. […] Basal adenyl cyclase activity was determined from wells with only SFM+IBMX media added.
The cells were then incubated at 37° C. for 30 minutes in a CO2 incubator. […] The pellets were discarded and the supernatants were stored at 4° C. until assayed for cAMP concentration. cAMP content for each extract was determined in duplicate by EIA (enzyme-immunoassay) using the Amersham Biotrak cAMP EIA kit (Amersham RPN 225).
Total inhibition (Io) of forskolin-stimulated adenyl cyclase activity by serotonin was determined as the difference in concentration of cAMP in the forskolin-treated cells (Cf) and serotonin-forskolin treated cells (Cd). […]

T2 sequence (P28222 whole entry): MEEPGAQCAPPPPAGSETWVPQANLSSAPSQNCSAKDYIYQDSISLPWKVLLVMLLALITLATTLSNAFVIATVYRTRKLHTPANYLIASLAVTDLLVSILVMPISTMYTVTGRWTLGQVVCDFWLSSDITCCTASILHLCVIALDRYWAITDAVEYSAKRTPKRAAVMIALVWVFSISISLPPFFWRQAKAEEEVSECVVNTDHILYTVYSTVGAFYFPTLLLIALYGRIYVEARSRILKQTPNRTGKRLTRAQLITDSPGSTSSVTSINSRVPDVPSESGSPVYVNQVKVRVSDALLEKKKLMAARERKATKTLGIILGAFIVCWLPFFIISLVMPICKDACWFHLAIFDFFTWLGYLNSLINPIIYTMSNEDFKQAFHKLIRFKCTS
T1 sequence (P28221 whole entry): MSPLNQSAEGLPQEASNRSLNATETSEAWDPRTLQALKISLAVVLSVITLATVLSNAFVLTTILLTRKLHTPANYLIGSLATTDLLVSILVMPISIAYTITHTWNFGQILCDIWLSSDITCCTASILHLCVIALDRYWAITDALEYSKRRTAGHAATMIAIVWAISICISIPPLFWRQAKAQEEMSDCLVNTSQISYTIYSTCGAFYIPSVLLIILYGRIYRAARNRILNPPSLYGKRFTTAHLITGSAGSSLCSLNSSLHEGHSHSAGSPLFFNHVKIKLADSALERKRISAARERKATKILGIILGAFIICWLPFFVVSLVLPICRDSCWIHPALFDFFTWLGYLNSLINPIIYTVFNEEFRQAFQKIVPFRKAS

Compound	inhibition at 0.1 µM [1]	inhibition at 0.1 µM [2]	forskolin stimulated production of cAMP (agonist activity) [3]
c1cc2[nH]cc(C3CCN4CCCC4C3)c2cc1C1CCOCC1 [Example 9g, 5-(Tetrahydropyran-4-yl)-[(7-R,S)(8a-R,S)-octahydro-7-indolizinyl]-1H-indole]	> 75%		
C1=C(c2ccc3[nH]cc(C4=CC5CCCN5CC4)c3c2)CCCC1 [Example 8d, 5-(Cyclohexen-1-yl)-3-[(8a-R,S)-1,2,3,5,6,8a-hexahydro-7-indolizinyl]-1H-indole]	> 75%		
CC(C)c1ccc2[nH]cc(C3CCN4CCCC4C3)c2c1 (single isomer, unassigned) [Example 9c, 5-Isopropyl-3-[(7R or 7S)(8a-R,S)-octahydro-7-indolizinyl]-1H-indole]	> 75%	< 50%	
C1=C(c2ccc3[nH]cc(C4=CCN5CCCC5C4)c3c2)CCCC1 [Example 8c, 5-(Cyclohexen-1-yl)-3-[(8a-R,S)-1,2,3,5,8,8a-hexahydro-7-indolizinyl]-1H-indole]	> 75%	< 50%	
C1=C(c2ccc3[nH]cc(C4=CCN5CCCC5C4)c3c2)CCSC1 [Example 8e, 5-(5,6-Dihydro-2H-thiopyran-4-yl)-3-[(8a-R,S)-1,2,3,5,8,8a-hexahydro-7-indolizinyl]-1H-indole]	> 75%	< 50%	
CC1=C(c2c[nH]c3ccc(C(C)C)cc23)CC2CCCN2C1 [Example 6, 5-Isopropyl-3-[(8a,R,S)-6-methyl-1,2,3,5,8,8a-hexahydro-7-indolizinyl]-1H-indole]	> 75%	< 50%	
Cc1ccc2[nH]cc(C3=CCN4CCCC4C3)c2c1 [Example 3c, 5-Methyl-3-[(8a-R,S)-1,2,3,5,8,8a-hexahydro-7-indolizinyl]-1H-indole]	> 75%	< 50%	
C1=C(c2ccc3[nH]cc(C4=CC5CCCN5CC4)c3c2)CCOC1 [Example 8b, 5-(5,6-Dihydro-2H-pyran-4-yl)-3-[(8a-R,S)-1,2,3,5,6,8a-hexahydro-7-indolizinyl]-1H-indole]	> 75%		
OC1(c2ccc3[nH]cc(C4=CCN5CCCC5C4)c3c2)CCCCC1 [Example 3h, 1-{[3-(8a-R,S)-1,2,3,5,8,8a-Hexahydro-7-indolizinyl]-1H-indol-5-yl}cyclohexanol]	> 75%	< 50%	
C1=C(c2c[nH]c3ccc(-c4cccs4)cc23)CC2CCCN2C1 [Example 3g, 5-(2-Thienyl)-3-[(8a-R,S)-1,2,3,5,8,8a-hexahydro-7-indolizinyl]-1H-indole]	> 75%		
c1csc(-c2ccc3[nH]cc(C4CCN5CCCC5C4)c3c2)c1 [Example 14c, 3-[(7-R,S)(8a-R,S)-Octahydro-7-indolizinyl]-5-(2-thienyl)-1H-indole]	> 75%	< 50%	decrease
C1=C(c2ccc3[nH]cc(C4=CCN5CCCC5C4)c3c2)CCOC1 [Example 8a, 5-(5,6-Dihydro-2H-pyran-4-yl)-3-[(8a-R,S)-1,2,3,5,8,8a-hexahydro-7-indolizinyl]-1H-indole]	> 75%		
C1=C(c2ccc3[nH]cc(C4=CC5CCCN5CC4)c3c2)CCSC1 [Example 8f, 5-(5,6-Dihydro-2H-thiopyran-4-yl)-3-[(8a-R,S)-1,2,3,5,6,8a-hexahydro-7-indolizinyl]-1H-indole]	> 75%		
COc1ccc2[nH]cc(C3=CCN4CCCC4C3)c2c1 [Example 3b, 5-Methoxy-3-[(8a-R,S)-1,2,3,5,8,8a-hexahydro-7-indolizinyl]-1H-indole]	> 75%	< 50%	
C1=C(c2c[nH]c3ccc(OC4CCCCC4)cc23)CC2CCCN2C1 [Example 3f, 5-Cyclohexyloxy-3-[(8a-R,S)-1,2,3,5,8,8a-hexahydro-7-indolizinyl]-1H-indole]	> 75%		
Brc1ccc2[nH]cc(C3=CCN4CCCC4C3)c2c1 [Example 3e, 5-Bromo-3-[(8a-R,S)-1,2,3,5,8,8a-hexahydro-7-indolizinyl]-1H-indole]	> 75%		
CC(C)c1ccc2[nH]cc(C3=CCN4CCCC4C3)c2c1 [Example 3d, 5-Isopropyl-3-[(8a-R,S)-1,2,3,5,8,8a-hexahydro-7-indolizinyl]-1H-indole]	> 75%	< 50%	decrease
OC1(c2ccc3[nH]cc(C4=CCN5CCCC5C4)c3c2)CCOCC1 [Example 7, 4-{[3-(8a-R,S)-1,2,3,5,8,8a-Hexahydro-7-indolizinyl]-1H-indol-5-yl}tetrahydro-2H-pyran-4-ol]	> 75%	< 50%	
